Patent publication US20240391912A1, “MORPHIC FORMS OF CFT7455 AND METHODS OF MANUFACTURE THEREOF” (C4 THERAPEUTICS, INC., priority 2022, published 2024)
≈ marks a conversion by molar mass, not a printed value.

Experiments:
[1] = Crystallization of Compound 1 at room temperature by slow evaporation (XRPD); assay type: physicochemical; details: 25° C./92% RH for 2 days
Experimental: About 20 mg of Compound 1 Form I (free form) was dissolved and filtered by 0.45 μm nylon filter. Obtained solutions were evaporated slowly at ambient condition. Solid residues were examined for their polymorphic form.

[2] = Scale-up experiment (200 mg) and characterization of new polymorphs of Compound 1; assay type: physicochemical; details: for X-ray diffraction: 3-40° (2 theta), XRPD method 1; for Thermogravimetry weight loss / water corresponding to TGA weight loss: TGA
Experimental: Scale-up 1: About 200 mg of Compound 1 Form I was dissolved in 10 mL THF/Water (95:5, v:v) at 40° C. […] Compound 1 Form IV was obtained. It was subjected to characterization.
Scale-up 2: About 200 mg of Compound 1 Form I was dissolved in 10 mL THF/Water (95:5, v:v) at 40° C. […] It was subjected to characterization.

[3] = Competitive equilibration experiment of Compound 1 Form I and Form IV for 1 week; assay type: physicochemical; details: for XRPD / form obtained in competitive equilibration: 1 week; for form obtained in competitive equilibration: 25° C.
Experimental: About 10 mg of Compound 1 Form I and 10 mg Compound 1 Form IV were added to 0.8 mL saturated solution in selected solvent. Obtained suspensions were stirred at 400 rpm and 25° C. for 1 week. Solids obtained were separated by filtration and characterized by XRPD.

[4] = system: OCI-LY10 human DLBCL intracranial xenografts; assay: OCI-LY10 human DLBCL intracranial xenograft study, survival; details: for Median Survival (Days), ± SEM / Survival time extension (%): Rituximab, i.v., QW
Experimental: Agents were tested in the OCI-LY10 human DLBCL intracranial model. […] Rituximab was administered from day 1 via i.v. once per week. Rituximab was dosed at 10 and 30 mg/kg. Individual mouse was euthanized once its body weight loss was over 20%.
The cells growing in an exponential growth phase were harvested and counted for tumor inoculation.
99 CB17 SCID mice were inoculated by intracranial injection with OCI-LY10 cells (1×10^6) for tumor development.
Tumor inoculation: Intraperitoneally injected avertin at dosage of 240 mg/kg to anaesthetize the CB17 SCID mice. Fixed the head of the anaesthetized mice to the brain solid positioner, sterilized the head skin with 70% alcohol. […] Punched a hole about 2 mm right of the anterior fontanel and 1 mm ahead the coronal on the skull with a 25 G needle. Cell suspensions were mixed and certain amount was sucked into the 5 μL injector slowly to avoid bubble formation. The cells were swapped around the needle with alcohol to avoid extracranial tumor genesis. The needle was stuck vertically into the formed hold and 5 μL of cell suspension containing 1×10^6 OCI-LY10 cells was slowly injected for over 1 minute. The injector was then held for another 1 minute and then pulled back to decrease the drainage of the cells suspension. The skin was closed with tweezers and then sewed. Meloxicam was then injected 30 min after the surgery at dosage of 5 mg/kg to relieve the pain. The animals were kept under monitoring until they were awake.
Animals were grouped for treatment on day 7 after tumor inoculation.
At the time of routine monitoring, the animals were daily checked for any effects of tumor growth and treatments on normal behavior such as mobility, food and water consumption (by looking only), body weight gain/loss (body weights were measured twice weekly), eye/hair matting and any other abnormal effect as stated in the protocol. Death and observed clinical signs were recorded on the basis of the numbers of animals within each subset.

[5] = Approximate solubility of Compound 5 polymorphs in EtOH:DCM (v:v=1:4); assay type: physicochemical; details: 25° C.; for Approximate solubility (visual appearance): EtOH:DCM (v:v = 1:4)
Experimental: Four polymorphs (Form V, Form VI, Form VII and Form VIII) were weighed respectively and a suitable amount of solvent mixture EtOH:DCM (v:v=1:4) was added. The obtained samples were stirred at a rate of 400 rpm at 25° C.

[6] = Bulk stability of Compound 5 Form VI and Form VIII at 25° C./60% RH, open container, 1 week (XRPD, HPLC, color); assay type: physicochemical
Experimental: Compound 5 Form VI and Form VIII were placed at 25° C./60% RH in an open container over 1 week. Samples after the stress were characterized by XRPD and HPLC and inspected for color change.

[7] = Solubility of Compound 5 Form VI and Form VIII at 25° C., equilibration for 24 hours (HPLC; XRPD of residual solids); assay type: physicochemical
Experimental: 11 mg (for 20 mg/mL target concentration) or 22 mg (for 50-60 mg/mL target concentration) of Compound 5 Form VI and Form VIII (equivalent to 10 mg or 20 mg of anhydrate free base) was weighed into a 4 mL glass vial, respectively. Up to 0.5 mL of potential eluent medium was added. The obtained suspensions/solutions were stirred at 25° C. at 400 rpm for 24 hours and then centrifuged at 25° C. at 14,000 rpm for 5 minutes. The residual solids were characterized by XRPD to determine the physical form. The supernatants (0.1 mL) were evaporated at about 22-25° C./30-60% RH.

[8] = Characterization of polymorphs and pseudo-polymorphs of Compound 5; assay type: physicochemical
[9] = THF/Heptane (v:v = 1:2), 25° C., 24 hours, target conc. 20 mg/mL
[10] = THF/water (v:v = 1:2.5), 25° C., 24 hours, target conc. 20 mg/mL, listed as Form VI

O=C1CC[C@H](N2C(=O)c3cccc4c(Cc5ccc(CN6CCOCC6)cc5)ccc2c34)C(=O)N1 [Compound 1 Form II, (S)-3-(6-(4-(morpholinomethyl)benzyl)-2-oxobenzo[cd]indol-1(2H)-yl)piperidine-2,6-dione]
Notes (form stability under humidity) [1]: No form change at 25° C./92% RH | Stoichiometry: MeOH ([2]; 1H-NMR): 1.0 equiv. | Stoichiometry: DCM ([2]; 1H-NMR, listed as Form II): 0.3% DCM and | X-ray diffraction ([2]; listed as Form II): Crystalline | Form change at 25° C./92% RH ([2]; 25° C./92% RH for 2 days): No form change | DSC: Methanol desolvation ([2]; DSC, 10° C./min): at 103.1 °C | Thermogravimetry weight loss ([2]; 10° C./min, at 125° C.): About 7.1%

O=C1CC[C@H](N2C(=O)c3cccc4c(Cc5ccc(CN6CCOCC6)cc5)ccc2c34)C(=O)N1 [Form I + Form IV]
XRPD ([3]; THF/Water (63.9:36.1, v:v), a.w. 1.0, 25° C.): Form IV | XRPD ([3]; THF/Water (86.9:13.1, v:v), a.w. 0.8, 25° C.): Form IV | XRPD ([3]; THF/Water (92.3:7.7, v:v), a.w. 0.6, 25° C.): Form IV | XRPD ([3]; THF/Water (97.0:3.0, v:v), a.w. 0.3, 25° C.): Form I | XRPD ([3]; THF/Water (98.1:1.9, v:v), a.w. 0.2, 25° C.): Form I | XRPD ([3]; THF/Water (99.1:0.9, v:v), a.w. 0.1, 25° C.): Form I

O=C1CC[C@H](N2C(=O)c3cccc4c(Cc5ccc(CN6CCOCC6)cc5)ccc2c34)C(=O)N1 [Form I and Form IV]
form obtained in competitive equilibration ([3]; DMSO/water system, all selected water activity mixtures): physical mixtures of Form I and Form IV | form obtained in competitive equilibration ([3]; THF/water system, a.w.≤0.3): Form I (anhydrate) | form obtained in competitive equilibration ([3]; THF/water system, water activity (a.w.)≥0.6): Form IV (hydrate)

rituximab: CD20 inhibitor; targeted antibody
Median Survival (Days), ± SEM ([4]; 10 mg/kg): 17.00 ± 0.46 days | Survival time extension (%) ([4]; 10 mg/kg): 21.4% | Median Survival (Days), ± SEM ([4]; 30 mg/kg): 16.00 ± 0.94 days | Survival time extension (%) ([4]; 30 mg/kg): 14.3% | extension of survival time ([4]; rituximab 10 mg/kg i.v. once per week, p=0.001): 21.4% | extension of survival time ([4]; rituximab 30 mg/kg i.v. once per week, p=0.085): 14.3%

O=C1CCC(N2C(=O)c3cccc4c(Cc5ccc(CN6CCOCC6)cc5)ccc2c34)C(=O)N1 (racemic) [Compound 5 Form VI]
Approximate solubility (visual appearance) ([5]; concentration 10 mg/mL, listed as Form VI): Suspension | Approximate solubility (visual appearance) ([5]; concentration 20 mg/mL, listed as Form VI): Suspension | approximate solubility compared with Form V and Form VII ([5]; EtOH:DCM (v:v=1:4), visual observation): higher solubility | bulk stability, chemical [6]: chemically stable | bulk stability, physical (form) ([6]; listed as Form VI): good physical stability | Bulk (HPLC) Purity ([6]; solid state, initial purity 93.1% (Form VI), 95.6% (Form VIII), listed as Form VI): 93.1% | Bulk (XRPD) ([6]; solid state, listed as Form VI): Form VI | solubility ([7]; EtOH/DCM (v:v = 1:4), 25° C., 24 hours, target conc. 50-60 mg/mL, LOQ 0.8 μg/mL, listed as Form VI): 27 mg/mL (≈ 57.5 mM) | solubility ([7]; MeOH/DCM (v:v = 1:2), 25° C., 24 hours, target conc. 50-60 mg/mL, LOQ 0.8 μg/mL): 30 mg/mL (≈ 63.9 mM) | physical form after solubility test ([7]; MeOH:DCM (v:v=1:2) and EtOH:DCM (v:v=1:4), 25° C., 24 h): converted to almost the amorphous form | XRPD of residual solids [7, 9]: Form VI | solubility [7, 9]: 0.1 mg/mL (≈ 0.213 mM) | XRPD of residual solids ([7]; THF/IPA (v:v = 1:2), 25° C., 24 hours, target conc. 20 mg/mL): Form VI | solubility ([7]; THF/IPA (v:v = 1:2), 25° C., 24 hours, target conc. 20 mg/mL, listed as Form VI): 0.9 mg/mL (≈ 1.92 mM) | XRPD of residual solids [7, 10]: Form VI | solubility [7, 10]: 4 mg/mL (≈ 8.52 mM) | physical form after solubility test ([7]; THF:2-propanol (v:v=1:2), THF:Heptane (v:v=1:2) and THF:water (v:v=1:2.5), 25° C., 24 h): no form change | solubility ([7]; in EtOH/DCM (v:v=1:4), about 25° C., 24 h, listed as Form VI): ~27 mg/mL (≈ 57.5 mM) | solubility ([7]; in MeOH/DCM (v:v=1:2), about 25° C., 24 h): about 30 mg/mL | solubility ([7]; in MeOH:DCM (v:v=1:2) and EtOH:DCM (v:v=1:4), 25° C. for 24 h, listed as Form VI): ~30 mg/mL (≈ 63.9 mM) | solubility ([7]; in THF:IPA (v:v=1:2), THF:Heptane (v:v=1:2) and THF:Heptane (v:v=1:2.5), 25° C. for 24 h): ~1 mg/mL (≈ 2.13 mM) | Evaporation of solvent from (by DSC) ([8]; DSC): about 154° C.; | Dehydration (by DSC) ([8]; DSC, listed as Form VI): about 6° C.; | Enthalpy (by DSC) ([8]; DSC, listed as Form VI): 35 J/g | Melting onset Tonset (by DSC) ([8]; DSC, listed as Form VI): Tonset 226.4° C., | Weight loss (by TGA) ([8]; at 215° C.): 9.7% at 215 °C | Residual ion (by IC): Br− ([8]; listed as Form VI): Br^−: 0.22 equiv. | Residual ion (by IC): Cl− ([8]; listed as Form VI): Cl^−: 0.08 equiv.; | Residual ion (by IC): Li+ ([8]; listed as Form VI): Li^+: 0.17 equiv.; | Residual ion (by IC): Na+ ([8]; listed as Form VI): Na+: 0.02 equiv.

O=C1CCC(N2C(=O)c3cccc4c(Cc5ccc(CN6CCOCC6)cc5)ccc2c34)C(=O)N1 (racemic) [Compound 5 Form VII]
Approximate solubility (visual appearance) ([5]; concentration 10 mg/mL, listed as Form VII): Suspension | Approximate solubility (visual appearance) ([5]; concentration 20 mg/mL, listed as Form VII): Suspension | Residual solvent (by 1H-NMR): NMP ([8]; 2 unknown peaks): 1.6 equiv. NMP;

O=C1CC[C@H](N2C(=O)c3cccc4c(Cc5ccc(CN6CCOCC6)cc5)ccc2c34)C(=O)N1 [Compound 1 Form III, (S)-3-(6-(4-(morpholinomethyl)benzyl)-2-oxobenzo[cd]indol-1(2H)-yl)piperidine-2,6-dione]
X-ray diffraction ([2]; listed as Form III): Crystalline | Thermogravimetry weight loss ([2]; 10° C./min, at 120° C.): About 5.8% | water corresponding to TGA weight loss ([2]; 10° C./min, listed as Form III): 120 °C (1.5 equiv.

O=C1CC[C@H](N2C(=O)c3cccc4c(Cc5ccc(CN6CCOCC6)cc5)ccc2c34)C(=O)N1 [Compound 1 Form IV, (S)-3-(6-(4-(morpholinomethyl)benzyl)-2-oxobenzo[cd]indol-1(2H)-yl)piperidine-2,6-dione]
X-ray diffraction ([2]; listed as Form IV): Crystalline | Thermogravimetry weight loss ([2]; 10° C./min, at 105° C.): About 1.3% | water corresponding to TGA weight loss ([2]; 10° C./min, listed as Form IV): 105 °C (0.4 equiv. | stability of the form ([3]; THF/water systems with high water activity): stable
